Measured values: article PMC6062138, “2,4-Diaminothieno[3,2-d]pyrimidines, a new class of anthelmintic with activity against adult and egg stages of whipworm” (PLoS Neglected Tropical Diseases, 2018)
Read-outs that look alike come from different tables or passages of the source.

Tests used:
ex vivo T. muris adults [1] = conditions: read-out: EC50 T. muris paralysis assay; cited from earlier work
T. trichiura = conditions: cited from earlier work; for Cure rate, T. trichiura infection: single dose; for Cure rate against whipworm: single doses as used in MDA, no reference given
C. elegans N2 [2] = tested on: C. elegans N2; parameters: method as in PMID 29223747; conditions: read-out: EC50 C. elegans growth assay; cited from earlier work
C. elegans N2 [3] = experiment: C. elegans growth assay; parameters: species or system Caenorhabditis elegans; conditions: synchronised L1, 5 days at 20°C, EC50 estimate ± standard error
Method: A mixed-stage C. elegans N2 population was obtained by liquid culture (20°C) according to standard methods. It was then bleached to obtain an egg population with 1.5 mL 4M NaOH, 2.4 mL NaOCl, 2.1 mL water, washed three times, and allowed to hatch in 50 mL S-basal buffer at 20°C overnight to obtain a synchronised L1 population. For the growth assay, 49 μL of S-complete buffer and 1 μL of DMSO or DMSO plus compound were added to each well of 96-well plates. 50 μL of a worm suspension (approximately 20 synchronised L1 worms, 1% w/v E. coli HB101 in S-complete buffer) were then added to each well. Plates were incubated at 20°C before imaging 5 days later. Worm movement was stimulated by inserting and removing a 96-well PCR plate into/from the wells of the assay plate, and then whole plate 200 frame movies were recorded at 30 frames per second. Growth was quantified as a correlate of movement using the same automated system described earlier, which estimates movement for each well by categorising pixels as imaging movement if their variance is greater the mean plus one standard deviation of the variances of all the pixels on the plate.

[4] = tested on: unembryonated T. muris eggs; experiment: Embryonation assay; parameters: species or system Trichuris muris; conditions: for Percentage of unembryonated eggs compared to the DMSO control: duration of embryonation (56–60 days)
Method: One hundred unembryonated eggs were treated with water, 1% v/v DMSO in water or test compounds at a final concentration of 100 μM (unless stated) with 1% v/v DMSO, in the dark at 26°C, either for 56 days or for shorter periods as described. Images were collected on an Olympus BX63 upright microscope using a 60x / 1.42 PlanApo N (Oil) objective and captured and white-balanced using an DP80 camera (Olympus) in monochrome mode through CellSens Dimension v1.16 (Olympus). Images were then processed and analysed using the image analysis platform Fiji.

ex vivo T. muris adults [5] = experiment: T. muris ex vivo adult motility (paralysis) assay; parameters: species or system Trichuris muris; conditions: for EC50: Trichuris muris; for Activity in hit confirmation and expansion motility screen: library material (DMSO solution), 100μM
Method: T. muris worms were cultured using severe combined immune deficiency (SCID) mice, at the Biological Services Facility at the University of Manchester. Male and female mice were infected with 200 infective embryonated T. muris eggs via oral gavage. Thirty-five days later, the mice were sacrificed. Adult T. muris were obtained from the intestine as previously described. Worms were maintained in Roswell Park Memorial Institute (RPMI) 1640 media supplemented with penicillin (500 U/mL) and streptomycin (500 μg/mL) at approximately 37°C and studied on the same day.
Individual adult worms were added to wells containing 75 μL of RPMI-1640 medium, penicillin (500 U/mL), streptomycin (500 μg/mL) plus 1% v/v final concentration of dimethylsulfoxide (DMSO) or compound dissolved in DMSO. Plates were incubated at 37°C, 5% CO2. Motility was determined after 24 hours.
An automated system was used to quantify worm movement. An earlier version of this system has been previously described. Two hundred frame movies of the whole plate were recorded at 10 frames per second and then motility determined by an algorithm based on thresholding pixel variance over time. For the hit confirmation and expansion assays, library material was used at a final concentration of 100μM. Dose-response curves were calculated with the four factor log-logistic model using the R package drc or using GraphPad Prism.

[6] = tested on: CMT-93 rectal epithelial cells; experiment: WST-8 cytotoxicity assay; type: cell-based; conditions: Mus musculus, CMT93; CMT-93 cells, 72 hours, max 100 μM, n = 8, 95% confidence interval in parentheses
Method: (§1) The mouse rectal epithelial cell line CMT-93 (LGC Promochem, Teddington, United Kingdom) was used for these studies. The WST-8 and neutral red cytotoxicity assays were performed as described. Briefly, cells were cultured with test compounds, chlorpromazine positive control or DMSO alone (final compound concentrations of 0 to 100 μM) for 72 hours. The WST-8 assay was then carried out using the Cell Counting Kit– 8 (Sigma Aldrich # 96992) with an incubation time of 2 hours. This time was chosen according to the manufacturer’s instructions and was such that the absorbance of the WST-8 formazan dye was within the linear range of the microplate reader. Following this assay, the medium was exchanged, and the ability of the cells to take up the dye neutral red (concentration 33 μg/mL, incubation time 2 hours) was determined using a microplate reader (absorbance at 540 nm). Results were analysed using GraphPad Prism and fitted using a log-logistic model.

[7] = tested on: CMT-93 rectal epithelial cells; experiment: Neutral red cytotoxicity assay; type: cell-based; conditions: Mus musculus, CMT93; CMT-93 cells, 72 hours, max 100 μM, n = 8, 95% confidence interval in parentheses
Method: as §1

[8] = tested on: embryonated T. muris eggs; experiment: In vivo hatching and infection establishment of treated eggs in SCID mice; parameters: species or system Trichuris muris in SCID mice; conditions: eggs soaked 14 days in 100 μM; SCID mice given 40 eggs; L2 larvae counted day 15 post infection; batch normalised to DMSO
Method: (§2) 100 infective embryonated eggs were incubated in deionised water with 1% v/v DMSO or test compounds at a final concentration of 100 μM in 1% v/v DMSO for 14 days at room temperature in the dark. Eggs were then washed and resuspended in deionised water. For in vitro hatching assays 100 eggs were added to 1 mL of E. coli bacterial culture grown in LB broth overnight at 37°C shaking at 200 rpm. Egg-bacterial cultures were incubated for 24 hours at 37°C, 5% CO2 and hatching determined following blinding by visual examination under a dissecting microscope. For in vivo hatching assays, 40 eggs were counted under a dissecting microscope and given to a SCID mouse in 200 μL water. At day 15 post-infection mice were culled and the number of L2 larvae present in the caecae and colon enumerated in a blinded manner under a dissecting microscope.
The experiment was conducted in two ‘experimental batches’. For batch one there were 5 mice in each of the DMSO and OX02926 groups. For batch two there were 9 mice in each of the DMSO and OX02926 groups. The raw data (number of worms that established infection in each mouse) are shown separated by batch and treatment in the S1 Fig.
To analyse the data we used a two-way ANOVA (worm number ~ treatment * batch). […] There was no significant interaction between treatment and batch [F(1,24) = 0.296, P = 0.59153]. […]

[9] = tested on: embryonated T. muris eggs; experiment: In vitro hatching of compound-soaked embryonated eggs in E. coli culture; parameters: species or system Trichuris muris; conditions: eggs soaked 14 days at 100 μM, then 24 hours in E. coli culture at 37°C
Method: as §2

[10] = parameters: method as in PMID 25370471, PMID 26787751; conditions: solid tumors; cited from earlier work
[11] = shown for comparison in Table 1, read-out: Adult Trichuris paralysis assay EC50

Row | EC50 (C. elegans N2 [3]; Caenorhabditis elegans, 120 h) | EC50 (ex vivo T. muris adults [5]; [11]) | Compound | EC50 (ex vivo T. muris adults [1]) | Activity in hit confirmation and expansion motility screen (ex vivo T. muris adults [5]) | EC50 [6] | EC50 [7] | further results
1 |  |  | CCCSc1ccc2nc(NC(=O)OC)[nH]c2c1 [Albendazole] | > 800 µM |  |  |  | Cure rate, T. trichiura infection (T. trichiura): 28%; Cure rate against whipworm (T. trichiura): less than 40%
2 |  |  | c1ccc([C@H]2CN3CCSC3=N2)cc1 [Levamisole] | 8 ± 3 µM |  |  |  | EC50 (C. elegans N2 [2]): 5 ± 1 µM
3 |  |  | COC(=O)Nc1nc2ccc(C(=O)c3ccccc3)cc2[nH]1 [Mebendazole] | > 600 µM |  |  |  | EC50 (C. elegans N2 [2]): 1.1 ± 0.2 µM; Cure rate, T. trichiura infection (T. trichiura): 36%; Cure rate against whipworm (T. trichiura): less than 40%
4 | 82 ± 9 µM | 47 µM | CNc1nc(NCCOc2ccccc2)c2sccc2n1 [OX02925, N^2-Methyl-N^4-(2-phenoxyethyl)thieno[3,2-d]pyrimidine-2,4-diamine] |  | active | 75 µM | 29 µM | Percentage of unembryonated eggs compared to the DMSO control ([4]; 100 μM, 26°C): significant increase
5 | 82 ± 37 µM | 27 µM | COCCNc1nc(NCCOc2ccccc2Cl)c2sccc2n1 [OX02926, N^4-(2-(2-Chlorophenoxy)ethyl)-N^2-(2-methoxyethyl)thieno[3,2-d]pyrimidine-2,4-diamine] |  | confirmed this activity | 43 µM | 21 µM | EC50 (C. elegans N2 [3]): 87 ± 37 µM; Reduction of the burden of worms in vivo [8]: ~40%; In vitro hatching of treated embryonated eggs compared to DMSO control [9]: significant decrease; EC50 (ex vivo T. muris adults [5]; equivalent of 27μM, read-out: EC50 adult whipworm motility assay, mass equivalent): 10.2 µg/mL; melting point: 69 to 97 °C
6 |  |  | Cc1ccc(CN2C(=O)COCc3cc(-c4ccncc4)ccc32)cc1 [OX02983] | 50 ± 13 µM |  |  |  | 
7 | 7 ± 1 µM | > 80 µM | COc1ccccc1CNc1nc(NCCOc2ccccc2Cl)c2sccc2n1 [OX03143, N^4-(2-(2-chlorophenoxy)ethyl)-N^2-(2-methoxybenzyl)thieno[3,2-d]pyrimidine-2,4-diamine] |  | active | 15 µM | 5 µM | 
8 | 11 ± 2 µM | 44 µM | CNc1nc(NCCOc2ccccc2Cl)c2sccc2n1 [OX03147, N^4-(2-(2-chlorophenoxy)ethyl)-N^2-methylthieno[3,2-d]pyrimidine-2,4-diamine] |  | active | 37 µM | 21 µM | Larval length after shortened exposure ([4]; 100 μM, 26°C, 2–4 week and 4–6 week groups): not affected; Percentage of unembryonated eggs compared to the DMSO control ([4]; 100 μM, 26°C): significant increase; Larval length after shortened exposure ([4]; 100 μM, 26°C, soaking weeks 0–3, P = 0.0076 vs DMSO): clear larval stunting; Proportion of unembryonated eggs after shortened exposure ([4]; 100 μM, 26°C, weeks 0–2, 0–3, 2–4 or 4–6 of embryonation): no increase; Morphology of L1 larvae within the egg after shortened exposure ([4]; 100 μM, 26°C, weeks 0–3, 2–4 or 4–6): clear morphological alterations; Drug dose at which increased number of unembryonated eggs was detected ([4]; concentration response, both 26°C and room temperature, 56 days): 100 µM; Effect on egg morphology / larval length at low concentration ([4]; concentrations as low as 1 μM, 26°C, 56 days): significant larval stunting
9 |  |  | CS(=O)(=O)N1CCN(Cc2cc3nc(-c4cccc5[nH]ncc45)nc(N4CCOCC4)c3s2)CC1 [Pictilisib, pictilisib] |  |  |  |  | Tolerability in Phase I trials [10]: tolerated
10 |  |  | Cc1c(CN2CCN(C(=O)[C@H](C)O)CC2)sc2c(N3CCOCC3)nc(-c3cnc(N)nc3)nc12 [apitolisib] |  |  |  |  | Tolerability in Phase I trials [10]: tolerated
